Columns and labels:
[1] = Intranasal administration of oxycodone in cynomolgus monkeys: plasma oxycodone by HPLC, against subcutaneous injection
[2] = Intranasal administration of tropisetron in cynomolgus monkeys: plasma tropisetron by HPLC, against intravenous injection; assay type: in vivo
Procedure: A single dose of an intranasal delivery composition was nasally administered to cynomolgus monkeys (body weight: 4.3 to 7.2 kg). Each composition was encapsulated and administered nasally using a device for nasal administration (Bioactis Co. Ltd.).
27.5 mg of tropisetron hydrochloride (equivalent to 25 mg of tropisetron free base) (Sigma), which is an antiemetic agent, and 72.5 mg of crystalline cellulose (Asahi Kasei: Avicel™ PH-F20) were mixed thoroughly in a mortar. The obtained tropisetron composition was prepared and 4.4 mg tropisetron hydrochloride (equivalent to 4.0 mg of tropisetron free base) per head was administered nasally to male cynomolgus monkeys weighing from 6.3 to 7.2 kg (n=3).
The injection was given intravenously to male cynomolgus monkeys weighing 6.9 and 7.2 kg (n=2), at 0.22 mg tropisetron hydrochloride (equivalent to 0.20 mg of tropisetron free base) per kg weight.
The plasma concentration of tropisetron free base after administration was determined by the HPLC method.
The time course of plasma tropisetron concentration after intravenous injection was subjected to a 2-compartment model analysis using the linear least-square method. The area under the theoretical plasma concentration vs. time curve (AUC) was determined based on the theoretical plasma tropisetron concentration calculated.

| SMILES | Time at which the maximum plasma concentration of oxycodone was reached ([1]; intranasal, time course of plasma concentrations) | bioavailability ([1]; male, cynomolgus, cynomolgus monkey, plasma, other: intranasal, […]) | Time at which the maximum plasma concentration of tropisetron was achieved ([2]; intranasal, time course of average plasma concentrations) | bioavailability ([2]; male, cynomolgus monkey, plasma, other: intranasal, nasal, 4 mg/body (0.59 mg/kg), compared with intravenous injection, read-out: BA (bioavailability) of tropisetron) |
| --- | --- | --- | --- | --- |
| COc1ccc2c3c1O[C@H]1C(=O)CC[C@@]4(O)[C@@H](C2)N(C)CC[C@]314 [oxycodone] | 20 min | 71.7% |  |  |
| CN1[C@@H]2CC[C@H]1C[C@@H](OC(=O)c1c[nH]c3ccccc13)C2 [tropisetron] |  |  | 5 min | 73.4% |

Source: US8673360B2, “Compositions that enable rapid-acting and highly absorptive intranasal administration” (Shin Nippon Biomedical Laboratories, Ltd., priority 2004, dated 2014)
